Experimental data taken from patent US9555052B2, “Intrauterine fetal growth restriction—the biochemical rationale of treatment modalities including extraperitoneal transamniotic fetal supplements” (priority 2003, dated 2017).
Like-named read-outs stand apart in the source and are kept apart here.

Columns and labels:
[1] = system: Human Umbilical Vessel Endothelial cells (HUVEC); settings: cited from earlier work
[2] = system: all tissues types; settings: cited from earlier work
[3] = system: severely growth restricted fetus (fetal IUGR); test: Clinical case study: severe fetal IUGR treated with maternal IV hypertonic D-glucose bolus; type: in vivo, human
Text: At the outset, it is relevant to describe a clinical case study of successfully treating a severe case of fetal IUGR, during the years 1983-84, by the Author Inventor as a practicing ob/gyn. in India, as it is the basis for this writing of significant depth that aided the author inventor decades later to fully comprehend what was once successfully treated, but was only incompletely understood at that time.
They were well nourished and was from good socioeconomic background, and there were no obvious etiological factors, that could be accounted for the identified fetal IUGR. After monitoring the growth of the fetus by assessing fundal height (a clinical norm of fetal measure in the past) for 3-4 more weeks, it was confirmed that the uterine size was not progressing, and that the patient had severely growth restricted fetus. […] The patient had more frequent pre-natal follow ups, and the treatment was diligently continued with increments, as also the patient was admirably cooperative. Nearing term, they were delivered by elective cesarean section.
The observed fetal growth restriction was undoubtedly severe, but with mere hypertonic intravenous D-glucose treatment and no other (except for standard doses of prenatal vitamins and minerals), the […] delivered an AGA baby, who obviously had caught up with standard growth curve, as though glucose supplement alone, and nothing else was needed.

[4] = system: rabbit fetus; settings: cited from earlier work
[5] = 25 G IV bolus over 3-5 minutes, cited from earlier work

insulin
CGMP accumulation [1]: increased
L-Arginine transport [1]: increased

NCCCC[C@@H](N)C(=O)O [D-lysine]
neovascular growth ([2]; all tissues types): induce neovascular growth

NCCCC[C@H](N)C(=O)O [monomeric lysine, lysine]
biomass (cell population) expansion ([2]; compared to other physicochemical means): expand biomass (cell population) at the least possible time

O=C[C@H](O)[C@@H](O)[C@H](O)[C@H](O)CO [D-glucose]
CGMP accumulation [1]: increased
L-Arginine transport [1]: increased
fetal growth response ([3]; 20% IV bolus 50 cc twice daily to the parent, observed in 2-3 weeks): undoubted and immediate catch up of fetal growth
birth weight for gestational age ([3]; at delivery nearing term): appropriate for the gestational age (AGA)
Apgar score of the baby ([3]; elective cesarean nearing term after continued treatment with increments): 10
adverse effects in the mother due to induced maternal hyperglycemia ([3]; throughout gestation): No adverse effects
reversal of growth restriction ([4]; Flake et al, natural runt rabbit fetus, solutions alone or in combination): did not reverse growth restriction
fetal weight ([4]; Mulvihill et al 1985, pregnant rabbit models, transamniotic): increase in fetal weight
blood glucose level (peak) ([5]; at 15 minutes): 175 mg %
blood glucose level ([5]; at 30 minutes): 125 mg %
blood glucose level ([5]; at 1 hour): 75 mg %
blood glucose level ([5]; during the second hour): 70 mg %
